This note sets out measurements from patent US20040180953A1, “Crystalline form of phenylethanolamine, the preparation thereof and pharmaceutical compositions comprising the same” (priority 2001, published 2004).

Common to all, as to assay type: physicochemical
The nature of data set [1]: Drying comparison of wet filtration cake in an agitated filter drier. The procedure:
The drying, in an agitated filter drier, of a wet filtration cake of SR58611A of A form results, in less than two hours, in a change in crystalline form and in the production of a cake composed of 90% of C form. To return to the A form, it is then necessary to continue the drying at a temperature of greater than 60° C. with agitation for approximately 48 h. […] Furthermore, the shape of the crystals obtained (thick hexagonal plates) makes it possible to reduce the residual moisture content of the filtration cake to contents of less than 20% and in fact facilitates the drying of the product for the purpose of its use as medicamental active principle.

Data set [2] is described as follows: Thermodynamic stability of the polymorphic forms maintained in solution or suspension. The following applies: room temperature, or more generally less than or equal to 70° C.; whatever the solvent; hydrochloride. As to the method: Furthermore, in addition to the possibility of having a purer and more homogeneous product, the B form can be obtained with better production efficiency, both with regard to crystallization and with regard to filtration and drying, in particular when it is prepared in propan-2-ol.

The nature of data set [3]: Kinetic conversion of SR58611A polymorphic mixture to B form in propan-2-ol suspension. As to the method: Polymorphic SR58611 hydrochloride (4.46 g) is suspended at ambient temperature in 0.3 litre of propan-2-ol. After maintaining for 70 h under isothermal conditions, the suspension is composed of SR58611A hydrochloride, B form, >96%. IR spectrum and X-ray diffraction are in agreement. Polymorphic SR58611 hydrochloride (95.2 g) is suspended at 70° C. in 0.3 litre of propan-2-ol. After maintaining for 12 h 30 under isothermal conditions, the suspension is composed of SR58611 hydrochloride, B form, >98%. IR spectrum and X-ray diffraction are in agreement.

Each structure is given as a SMILES string. Where a name gives a salt, the structure may show the parent alone. A value given as a limit tells only on which side of the number the result lay.

Consider `CCOC(=O)COc1ccc2c(c1)C[C@@H](NC[C@H](O)c1cccc(Cl)c1)CC2.Cl` [A form, ethyl [(7S)-7-[(2R)-2-(3-chlorophenyl)-2-hydroxyethylamino]-5,6,7,8-tetrahydronaphth-2-yloxy]-acetate hydrochloride], for which the “C form content of the cake after change in crystalline form on drying” value in data set [1] (agitated filter drier, wet filtration cake, in less than two hours) is on record as 90%. In addition, the “further drying time needed to return to the A form” value in data set [1] (drying at greater than 60° C. with agitation) is “approximately 48 h”. Moreover, the “thermodynamic stability relative to the other polymorphs” value in data set [2] is reported as “end up by being converted to the B form”.
As for `CCOC(=O)COc1ccc2c(c1)C[C@@H](NC[C@H](O)c1cccc(Cl)c1)CC2.Cl` [B form, ethyl [(7S)-7-[(2R)-2-(3-chlorophenyl)-2-hydroxyethylamino]-5,6,7,8-tetrahydronaphth-2-yloxy]-acetate hydrochloride], the “change of crystalline form on drying” value in data set [1] (drying of filtration cake) was “not changing crystalline form on drying”. Also, the “residual moisture content of the filtration cake” value in data set [1] (thick hexagonal plate crystals) was “less than 20%”. The “thermodynamic stability relative to the other polymorphs” value in data set [2] is “the most thermodynamically stable form”.
Consider `CCOC(=O)COc1ccc2c(c1)C[C@@H](NC[C@H](O)c1cccc(Cl)c1)CC2.Cl` [C form, ethyl [(7S)-7-[(2R)-2-(3-chlorophenyl)-2-hydroxyethylamino]-5,6,7,8-tetrahydronaphth-2-yloxy]-acetate hydrochloride], for which, in data set [2], the “thermodynamic stability relative to the other polymorphs” value was “end up by being converted to the B form”.
Take `CCOC(=O)COc1ccc2c(c1)C[C@@H](NC[C@H](O)c1cccc(Cl)c1)CC2` [Polymorphic SR58611 hydrochloride, N-[(2S)-7-ethoxycarbonylmethoxy-1,2,3,4-tetrahydronaphth-2-yl]-(2R)-(3-chlorophenyl)-2-hydroxyethanamine hydrochloride]: the “B form content of the suspension after conversion” value in data set [3] (suspended at 70° C. in propan-2-ol, 12 h 30 isothermal) was > 98%; in data set [3] (suspended at ambient temperature in propan-2-ol, 70 h isothermal), > 96%.
